Values of other authors as cited in publication PMC10307885, “A Phase 1/2 trial of SRA737 (a Chk1 inhibitor) administered orally in patients with advanced cancer” (British Journal of Cancer, 2023).

Experiments:
[1] = tested on: patients; settings: cited from earlier work
[2] = tested on: patients; settings: cited from earlier work; remark: listed apart in the source
[3] = in combination with standard dose gemcitabine

## COc1cccc(OCCCN)c1-c1cc(Nc2cnc(C#N)cn2)n[nH]1 [prexasertib]
[1]; intravenous, Phase 1 study
  efficacy in squamous anal and head and neck cancers: partial responses
[1]; patients with high-grade serous ovarian cancers
  response rate: 33%
[2]; intravenous, Phase 2 study
  rate of diarrhoea: 20%
  rate of nausea: 36%
  rate of vomiting: 27%

## NC(=O)Nc1cc(-c2cccc(F)c2)sc1C(=O)N[C@H]1CCCNC1 [AZD7762]
[2]; intravenously administered
  toxicity that halted development: cardiac toxicity including a drop in ejection fraction

## N[C@@H]1CCCN(c2c(Br)cnc3[nH]cc(NC(=O)C4CC4)c23)C1 [GDC-0575]
[1]; used as a single agent
  partial or complete responses: did not report partial or complete responses
[2]; [3]
  Treatment-related neutropenia of NCI CTCAE Grade 3 or higher: 60 % of patients
  treatment-related GI adverse events of all grades: diarrhoea: 18%
  treatment-related GI adverse events of all grades: nausea: 43%
  treatment-related GI adverse events of all grades: vomiting: 27%
